In PMC8151276, “An Integrated Approach toward NanoBRET Tracers for Analysis of GPCR Ligand Engagement” (Molecules, 2021):

How the values were obtained:
Type in all cases: binding
[1] = biological target: T1, HTR1E (Homo sapiens, UniProt P28566); assay: NanoBRET screen HiBiT-HTR1E in HEK293
T1 construct: purchased Promega (in-house HiBiT-GPCR construct library, NanoBRET)
Description: (§1) Each tracer candidate was screened across the entire library of HiBiT-GPCR constructs using NanoBRET as the detection modality. As depicted in Figure 4A, the specificity of interactions was evaluated through decrease in BRET due to competitive displacement of a bound tracer by excess parental compound. Each tracer was analyzed for binding to each HiBiT-GPCR fusion in the absence and in the presence of competing parental compound. Briefly, HEK293 cells were transfected with HiBiT-GPCR constructs diluted into promoterless DNA to reduce expression and maximize translocation to the cell surface. Each tracer candidate was then screened at concentrations of 1 μM and 0.1 μM across cells expressing these fusions. Cells were treated for 1.5 h with tracer either alone or in the presence of 20 μM competing parental compound (i.e., control). BRET was measured upon addition of purified LgBiT and subsequent complementation with HiBiT genetically fused to a GPCR. The specificity of interactions was assessed through a decrease in BRET signal due to competitive displacement of the bound tracer. To further gauge the robustness of these interactions, the fold response over the control (i.e., BRETtracer/BRETcontrol) was calculated. We chose a 1.5-fold response, which translates to ≥7-fold signal over noise as the minimal threshold required to score an interaction as positive. […]. Below we highlight the screening results obtained for our exemplary fluorescent tracers based on Clozapine, Amitriptyline and AZD1283.
(§2) HiBiT-GPCR DNA constructs were diluted in 10 mM Tris pH 8 to a final concentration of 0.01 μg/μL, arrayed in 96-well plates and stored at −20 °C. For transfection, HEK293 cells were suspended in Opti-MEM (without phenol red) supplemented with 2% fetal bovine serum (Seradigm) and 100 units/mL penicillin–streptomycin (Gibco) at a final concentration of 220,000 cells/mL and dispensed into white 96-well plates at 90 μL/well. Subsequent transfections and screens were carried using an Agilent Bravo Automated Liquid Handling Platform. First, the 96-well HiBiT DNA arrays were diluted 25-fold in Opti-MEM (without serum or phenol red) to a final concentration of 0.0004 μg/μL and 20 μL of the diluted DNAs were transferred into new 96-well plates. Next, promoterless carrier DNA (1 μg/μL) was diluted 25-fold (0.04 μg/μL) and then dispensed into the diluted arrays at 20 μL/well. Following brief mixing, Viafect transfection reagent (Promega) diluted 16-fold into Opti-MEM was dispensed into the plates at 40 μL/well. After mixing by pipetting, plates were incubated for 10 min on the pipetting station deck. The DNA-transfection reagent complexes were then added to plates containing cells. To facilitate the screen, 10 μL of DNA-transfection reagent complexes were added in duplicates to the top 4 and bottom 4 rows, resulting in two identical 48-well arrays per plate. Plates with transfected cells were incubated for 18–20 h at 37 °C/5% CO2. A screen of each tracer across the entire library using two different concentrations requires duplicate plates of transfected cells. Depending on the number of tracers being screened, transfections can be scaled up using the same ratios. The next day, for each tracer, four 20× screening solutions in tracer dilution buffer (Promega) were prepared: two duplicates at final concentration of 20 μM and two duplicates at a final concentration of 2 μM. A competing unmodified compound was added to one of each duplicate at a final concentration of 400 μM. The four resulting solutions were diluted 4-fold in Opti-MEM without serum or phenol red to generate 5× solutions (5 µM and 0.5 µM tracer +/− 100 μM competing compound). To screen the library, a BioTek MultiFlo FX liquid dispenser was used to dispense 22.5 µL of tracer solution to the top 4 rows and 22.5 µL tracer + competing compound solution to the 4 bottom rows. Plates were briefly mixed on an orbital shaker and incubated for 1.5 h at room temperature. […]

[2] = biological target: T2, F2RL1 (Homo sapiens, UniProt P55085); assay: NanoBRET screen HiBiT-F2RL1 in HEK293
T2 construct: purchased Promega (in-house HiBiT-GPCR construct library, NanoBRET)
T2 sequence (P55085 26-397): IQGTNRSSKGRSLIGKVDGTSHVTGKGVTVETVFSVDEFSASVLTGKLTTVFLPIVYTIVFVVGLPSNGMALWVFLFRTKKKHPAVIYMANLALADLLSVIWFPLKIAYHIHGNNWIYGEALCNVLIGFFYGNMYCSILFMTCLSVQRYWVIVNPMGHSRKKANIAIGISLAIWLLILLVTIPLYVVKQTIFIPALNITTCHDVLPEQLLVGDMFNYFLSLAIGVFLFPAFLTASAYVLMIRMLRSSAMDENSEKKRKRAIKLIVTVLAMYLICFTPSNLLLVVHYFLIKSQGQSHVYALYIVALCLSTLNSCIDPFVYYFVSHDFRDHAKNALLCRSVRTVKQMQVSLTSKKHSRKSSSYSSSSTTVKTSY
Description: as §1, §2

[3] = biological target: T3, NPBWR1 (Homo sapiens, UniProt P48145); assay: NanoBRET screen HiBiT-NPBWR1 in HEK293
T3 construct: purchased Promega (in-house HiBiT-GPCR construct library, NanoBRET)
T3 sequence (P48145 1-328): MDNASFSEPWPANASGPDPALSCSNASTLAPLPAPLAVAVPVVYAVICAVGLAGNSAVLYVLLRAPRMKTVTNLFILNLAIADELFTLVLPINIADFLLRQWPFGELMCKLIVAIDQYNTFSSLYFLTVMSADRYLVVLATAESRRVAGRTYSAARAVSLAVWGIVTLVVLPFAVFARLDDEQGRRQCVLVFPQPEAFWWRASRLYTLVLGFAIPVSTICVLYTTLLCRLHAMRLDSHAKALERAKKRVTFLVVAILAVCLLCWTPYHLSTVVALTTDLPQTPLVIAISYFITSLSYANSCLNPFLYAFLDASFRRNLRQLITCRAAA
Description: as §1, §2

[4] = tracer at 0.1μM, listed as amitriptyline-b-2-NB590
[5] = tracer at 1μM, listed as amitriptyline-b-2-NB590

T1 sequence (P28566 whole entry): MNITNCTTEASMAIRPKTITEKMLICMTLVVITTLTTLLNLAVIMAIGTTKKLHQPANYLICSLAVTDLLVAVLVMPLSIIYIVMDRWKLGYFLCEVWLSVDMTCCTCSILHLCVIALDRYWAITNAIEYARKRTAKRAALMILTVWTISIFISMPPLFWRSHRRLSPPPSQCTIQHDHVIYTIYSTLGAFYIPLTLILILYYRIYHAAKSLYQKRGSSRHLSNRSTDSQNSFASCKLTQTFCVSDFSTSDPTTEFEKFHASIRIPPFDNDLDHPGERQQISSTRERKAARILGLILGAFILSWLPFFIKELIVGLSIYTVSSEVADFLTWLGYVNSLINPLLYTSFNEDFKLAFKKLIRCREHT

SMILES: CCOC(=O)c1cc(C#N)c(N2CCC(C(=O)NS(=O)(=O)Cc3ccccc3/C=C/C(=O)NCCNC(=O)CCc3ccc4n3[B-](F)(F)[N+]3=C(c5ccc[nH]5)C=CC3=C4)CC2)nc1C [AZD1283-1-NB590]
- NanoBRET Fold Response ([1]; HTR1E, 0.1μM): 0.94
- NanoBRET Fold Response ([1]; HTR1E, 1μM): 0.96
- NanoBRET Fold Response ([2]; F2RL1, 0.1μM): 1.06
- NanoBRET Fold Response ([2]; F2RL1, 1μM): 1.06
- NanoBRET Fold Response ([3]; NPBWR1, 0.1μM): 1.02
- NanoBRET Fold Response ([3]; NPBWR1, 1μM): 0.98

SMILES: N#CN=C(NCCCOc1cccc(CN2CCCCC2)c1)NCCNC(=O)CCOCCOCCOCCOCCNC(=O)CCc1ccc2n1[B-](F)(F)[N+]1=C(c3ccc[nH]3)C=CC1=C2 [Aminopotentidine-2-NB590]
- NanoBRET Fold Response ([1]; HTR1E, tracer 0.1μM): 0.93
- NanoBRET Fold Response ([1]; HTR1E, tracer 1μM): 1.06
- NanoBRET Fold Response ([2]; F2RL1, tracer 0.1μM): 1.03
- NanoBRET Fold Response ([2]; F2RL1, tracer 1μM): 0.99
- NanoBRET Fold Response ([3]; NPBWR1, tracer 0.1μM): 0.94
- NanoBRET Fold Response ([3]; NPBWR1, tracer 1μM): 0.95

SMILES: CN(C)CCC=C1c2ccccc2CCc2ccc(C(=O)NCCNC(=O)CCOCCOCCOCCOCCNC(=O)CCc3ccc4n3[B-](F)(F)[N+]3=C(c5ccc[nH]5)C=CC3=C4)cc21 [Amitriptyline-a-2-NB590]
- NanoBRET Fold Response ([1]; tracer at 0.1μM): 1.04
- NanoBRET Fold Response ([1]; tracer at 1μM): 1.00
- NanoBRET Fold Response ([2]; tracer at 0.1μM): 1.01
- NanoBRET Fold Response ([2]; tracer at 1μM): 1.07

SMILES: CN(C)CCC=C1c2ccccc2CCc2ccc(C(=O)NCCNC(=O)CCOCCOCCOCCOCCNC(=O)CCc3ccc4n3[B-](F)(F)[N+]3=C(c5ccc[nH]5)C=CC3=C4)cc21 [Amitriptyline-b-2-NB590]
- NanoBRET Fold Response [1, 4]: 1.01
- NanoBRET Fold Response [1, 5]: 0.95
- NanoBRET Fold Response [2, 4]: 1.10
- NanoBRET Fold Response [2, 5]: 1.00
- NanoBRET Fold Response ([3]; tracer at 0.1μM): 1.04
- NanoBRET Fold Response ([3]; tracer at 1μM): 1.03

SMILES: CN(CCC=C1c2ccccc2CCc2ccccc21)C(=O)CCOCCOCCOCCOCCNC(=O)CCc1ccc2n1[B-](F)(F)[N+]1=C(c3ccc[nH]3)C=CC1=C2 [Amitriptyline-e-2-NB590]
- NanoBRET Fold Response ([1]; tracer at 1μM): 0.96

SMILES: COc1ccc2c(n1)c(CCNC(C)=O)cn2CCNC(=O)CCc1ccc2n1[B-](F)(F)[N+]1=C(c3ccc[nH]3)C=CC1=C2 [Azamelatonin-1-NB590]
- NanoBRET Fold Response ([1]; 0.1μM tracer): 0.99
- NanoBRET Fold Response ([1]; 1μM tracer): 0.99
- NanoBRET Fold Response ([2]; 0.1μM tracer): 1.21
- NanoBRET Fold Response ([2]; 1μM tracer): 0.93
- NanoBRET Fold Response ([3]; 0.1μM tracer): 0.88
- NanoBRET Fold Response ([3]; 1μM tracer): 0.84

SMILES: COc1ccc2[nH]c(-c3ccc(CNC(=O)CCOCCOCCOCCOCCNC(=O)CCc4ccc5n4[B-](F)(F)[N+]4=C(c6ccc[nH]6)C=CC4=C5)cc3)c(CCNC(C)=O)c2n1 [AzomelatoninICO9-2-NB590]
- NanoBRET Fold Response ([1]; 0.1μM tracer): 0.97
- NanoBRET Fold Response ([1]; 1μM tracer): 1.18
- NanoBRET Fold Response ([2]; 0.1μM tracer): 0.95
- NanoBRET Fold Response ([2]; 1μM tracer): 0.83
- NanoBRET Fold Response ([3]; 0.1μM tracer): 0.87
- NanoBRET Fold Response ([3]; 1μM tracer): 1.04
